{"source": "paper PMC6028453", "about": "“BrlR from Pseudomonas aeruginosa is a receptor for both cyclic di-GMP and pyocyanin” (Nature Communications, 2018)", "key": {"BrlR-C": {"target": "T1, BrlR-C (Pseudomonas aeruginosa, UniProt Q9HUT5)", "T1 construct": "His6 (cleaved yes); made in house; host or cells: E. coli (same protocol as BrlR, induction at 18 °C)", "T1 sequence (Q9HUT5 120-270)": "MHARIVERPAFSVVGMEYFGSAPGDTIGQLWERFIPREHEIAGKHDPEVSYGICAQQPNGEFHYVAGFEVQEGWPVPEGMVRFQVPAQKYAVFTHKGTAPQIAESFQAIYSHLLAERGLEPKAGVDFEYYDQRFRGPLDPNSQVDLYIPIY", "assay": "FP competition experiment, BrlR-C", "format": "binding", "details": "550 μM BrlR-C, 1 nM F-c-di-GMP", "procedure": "Supplementary Figure 11: FP analyses of F-c-di-GMP binding to BrlR-C. (a) Isotherms of BrlR-C binding to F-c-di-GMP. The binding experiment was carried out at 25 °C in a buffer containing 150 mM NaCl, 25 mM Tris·HCl (pH 7.5), and 1 nM F-c-di-GMP. Increasing concentrations of BrlR-C were titrated into the reaction mixture to obtain the binding isotherms. (b) Fluorescence polarization competition experiment of BrlR-C. As a control, 550 μM BrlR-C was added to the reaction tube containing 1 nM F-c-di-GMP, and different competitors were respectively added in the solution and the values of millipolarization were recorded.\n(1 picture or pasted object on this page, not shown here)"}, "[1]": {"test_system": "brlR promoter activity (wild-type BrlR)", "assay": "β-galactosidase assay, PbrlR-brlR-lacZ reporter, wild-type BrlR", "format": "cell-based, Pseudomonas aeruginosa", "details": "ΔbrlR strain, pHERD20T-PA4843 vs pHERD20T", "procedure": "We also performed β-galactosidase activity assays using a PbrlR-brlR-lacZ reporter construct to investigate the transcriptional function of BrlR mutants in vivo. […] To confirm the effect of c-di-GMP in P. aeruginosa, we carried out real-time quantitative PCR analyses. Following a previous report, we introduced the diguanylate cyclase PA4843 into a WT P. aeruginosa strain carrying either pHERD20T-empty or pHERD20T-PA4843. The transcription level of brlR was analyzed using the brlR 5 F and brlR 3 R primers (Supplementary Table 1). The transcriptional level of brlR in pHERD20T-PA4843 strain is 4.5 ± 1.3-fold higher than that in the pHERD20T-empty strain (Fig. 4h).\nβ-galactosidase activity was assayed with P. aeruginosa PA01 ΔbrlR strain carrying plasmid pME6522-borne transcriptional lacZ fusions. P. aeruginosa carrying the empty vector was used as the […]. The reporter plasmids are derivatives of the pME6522 plasmid in which multiple cloning sites were inserted before the LacZ with the promoter and coding regions of brlR with diverse mutations. These reporter plasmids were transformed into the reporter strain. Overnight cultures were diluted 20-fold with LB medium supplemented with appropriate antibiotics. […]"}, "[2]": {"target": "T2, C2E mut3 (R31A/D35A/Y40A/R67A/R86A/Y270A) DNA binding (Pseudomonas aeruginosa, UniProt Q9HUT5, D35A/R31A/R67A/R86A/Y270A/Y40A)", "T2 construct": "His6-SUMO (N, cleaved yes); made in house; host or cells: E. coli BL21 DE3", "T2 sequence (Q9HUT5 whole entry R31A/D35A/Y40A/R67A/R86A/Y270A)": "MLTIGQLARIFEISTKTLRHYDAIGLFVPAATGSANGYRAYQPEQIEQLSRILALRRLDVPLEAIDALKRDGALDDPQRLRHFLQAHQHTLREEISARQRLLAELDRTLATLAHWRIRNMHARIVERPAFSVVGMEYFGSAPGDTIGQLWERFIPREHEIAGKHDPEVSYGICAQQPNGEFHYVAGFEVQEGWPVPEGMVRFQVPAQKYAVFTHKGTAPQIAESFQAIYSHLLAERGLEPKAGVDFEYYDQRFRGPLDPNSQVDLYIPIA", "assay": "EMSA, C2E mut3", "format": "biochemical", "procedure": "(§1) A 6-carboxy-fluorescein (FAM)-labeled 36-bp brlR promoter DNA (PbrlR) or 80-bp mexA/mexE promoter DNA (PmexA/PmexE) probes (~0.375 pmol), BrlR protein and varying amounts of inducers were incubated in binding buffer (10 mM Tris HCl [pH 7.4], 50 mM KCl, 1 mM DTT, […] and 5 ng/mL poly [dI-dC]) for 60 min at 25 °C. Finally, glycerol was added to a concentration of 6.5%. The samples were subjected to a 5% polyacrylamide gel electrophoresis and run in 0.5 × Tris-borate-EDTA buffer at 80 V for 1 h at room temperature. Imaging and data analyses were performed using a Typhoon Scanner (GE Healthcare) and Imagequant software. The probes used are listed in Supplementary Table 1."}, "BrlR R67A DNA binding": {"target": "T3, BrlR R67A DNA binding (Pseudomonas aeruginosa, UniProt Q9HUT5, R67A)", "T3 construct": "His6-SUMO (N, cleaved yes); made in house; host or cells: E. coli BL21 DE3", "T3 sequence (Q9HUT5 whole entry R67A)": "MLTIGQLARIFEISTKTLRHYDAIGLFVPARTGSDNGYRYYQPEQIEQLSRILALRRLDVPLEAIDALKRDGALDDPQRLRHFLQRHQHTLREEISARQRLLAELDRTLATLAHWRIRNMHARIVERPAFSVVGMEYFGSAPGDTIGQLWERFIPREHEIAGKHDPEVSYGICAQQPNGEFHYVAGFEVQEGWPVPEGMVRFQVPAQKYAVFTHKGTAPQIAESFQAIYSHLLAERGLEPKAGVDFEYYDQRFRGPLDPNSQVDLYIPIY", "assay": "EMSA, BrlR R67A", "format": "biochemical", "procedure": "as §1"}}}
{"smiles": "Nc1nc2c(ncn2[C@@H]2O[C@@H]3COP(=O)(O)O[C@H]4[C@@H](O)[C@H](n5cnc6c(=O)[nH]c(N)nc65)O[C@@H]4COP(=O)(O)O[C@H]3[C@H]2O)c(=O)[nH]1", "note": "[c-di-GMP, cyclic diguanylate monophosphate]", "values": [{"measurement": "competition with F-c-di-GMP binding to BrlR-C", "setting": "BrlR-C", "value": "not"}, {"measurement": "increase at high vs low c-di-GMP concentration (β-galactosidase activity)", "setting": "[1]", "value": 3.3, "unit": "fold"}, {"measurement": "effect of c-di-GMP on DNA binding", "setting": "[2]", "value": "did not have any effect"}, {"measurement": "DNA bound in the presence vs absence of c-di-GMP", "setting": "BrlR R67A DNA binding", "value": "~ 5.2 fold"}]}
